Test results taken from PubChem BioAssay AID256 (DTP/NCI, 2004).
Where “and” joins values, the source holds several entries; their conditions need not be identical. Equal values may be shown once. Toxic doses and inconclusive results are not listed.

Test system: CD2F1 mice, L1210 leukemia ip, survival T/C
Experiment: NCI In Vivo Anticancer Drug Screen. Data for tumor model L1210 Leukemia (intraperitoneal) in CD2F1 (CDF1) mice
Conditions: higher = longer survival
Procedure, shortened: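 Transplantable tumor in mice; compound-treated vs vehicle-treated groups. Read-out = treated/control ratio of the measured endpoint.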

[1] = endpoint: mean survival time, dose: 100.0 mg/kg/injection, schedule: Q04DX002 (ip), vehicle: saline with Tween-80
[2] = endpoint: mean survival time, dose: 200.0 mg/kg/injection, schedule: Q04DX002 (ip), vehicle: saline with Tween-80
[3] = endpoint: mean survival time, dose: 400.0 mg/kg/injection, schedule: Q04DX002 (ip), vehicle: saline with Tween-80
[4] = endpoint: mean survival time, dose: 100.0 mg/kg/injection, schedule: Q01DX001 (ip), vehicle: Klucel (hydroxypropylcellulose) (HPC)
[5] = endpoint: mean survival time, dose: 200.0 mg/kg/injection, schedule: Q01DX001 (ip), vehicle: Klucel (hydroxypropylcellulose) (HPC)
[6] = endpoint: mean survival time, dose: 400.0 mg/kg/injection, schedule: Q01DX001 (ip), vehicle: Klucel (hydroxypropylcellulose) (HPC)
[7] = endpoint: mean survival time, dose: 100.0 mg/kg/injection, schedule: Q01DX009 (ip), vehicle: saline with Tween-80
[8] = endpoint: mean survival time, dose: 200.0 mg/kg/injection, schedule: Q01DX009 (ip), vehicle: saline with Tween-80
[9] = endpoint: mean survival time, dose: 400.0 mg/kg/injection, schedule: Q01DX009 (ip), vehicle: saline with Tween-80
[10] = endpoint: mean survival time, dose: 100.0 mg/kg/injection, schedule: Q04DX003 (ip), vehicle: saline with Tween-80
[11] = endpoint: mean survival time, dose: 200.0 mg/kg/injection, schedule: Q04DX003 (ip), vehicle: saline with Tween-80
[12] = endpoint: mean survival time, dose: 400.0 mg/kg/injection, schedule: Q04DX003 (ip), vehicle: saline with Tween-80
[13] = endpoint: mean survival time, dose: 25.0 mg/kg/injection, schedule: Q01DX009 (ip), vehicle: saline with Tween-80
[14] = endpoint: mean survival time, dose: 50.0 mg/kg/injection, schedule: Q01DX009 (ip), vehicle: saline with Tween-80

With Cc1nc(C(Cl)(Cl)Cl)[nH]c(=O)c1SCCO the T/C (endpoint: median survival time, dose: 25.0 mg/kg/injection, schedule: Q01DX009 (ip), vehicle: distilled water + alcohol) was 97 % of control and 100 % of control and 102 % of control, the T/C (endpoint: median survival time, dose: 25.0 mg/kg/injection, schedule: Q01DX009 (sc), vehicle: distilled water + Tween-80 + alcohol) was 101 % of control and the T/C (endpoint: median survival time, dose: 50.0 mg/kg/injection, schedule: Q01DX009 (sc), vehicle: distilled water + Tween-80 + alcohol) was 101 % of control. For the same compound, the T/C (endpoint: median survival time, dose: 100.0 mg/kg/injection, schedule: Q01DX009 (sc), vehicle: distilled water + Tween-80 + alcohol) was 101 % of control and the T/C (endpoint: median survival time, dose: 200.0 mg/kg/injection, schedule: Q01DX009 (sc), vehicle: distilled water + Tween-80 + alcohol) was 103 % of control.

COc1ccc(N=C(C)CC(C)=O)cc1 was tested, and the T/C [1] was 98 % of control, the T/C [2] was 95 % of control and the T/C [3] was 95 % of control.

In the case of O=c1ccn(C2OC(CO)C3[O][Sn]([c]4ccccc4)([c]4ccccc4)[O]C32)c(=O)[nH]1 (stereo not given), the T/C (endpoint: mean survival time, dose: 1.56 mg/kg/injection, schedule: Q01DX005 (ip), vehicle: other) is reported as 110 % of control, the T/C (endpoint: mean survival time, dose: 3.13 mg/kg/injection, schedule: Q01DX005 (ip), vehicle: other) is reported as 107 % of control and the T/C (endpoint: mean survival time, dose: 6.25 mg/kg/injection, schedule: Q01DX005 (ip), vehicle: other) is reported as 98 % of control. The T/C (endpoint: mean survival time, dose: 12.5 mg/kg/injection, schedule: Q01DX005 (ip), vehicle: other) was 102 % of control and 105 % of control.

In the case of O=C1CCn2cccc21, the T/C (endpoint: median survival time, dose: 25.0 mg/kg/injection, schedule: Q04DX002 (ip), vehicle: saline) is reported as 100 % of control, the T/C (endpoint: median survival time, dose: 50.0 mg/kg/injection, schedule: Q04DX002 (ip), vehicle: saline) is reported as 100 % of control and the T/C (endpoint: median survival time, dose: 100.0 mg/kg/injection, schedule: Q04DX002 (ip), vehicle: saline) is reported as 100 % of control. The T/C (endpoint: median survival time, dose: 200.0 mg/kg/injection, schedule: Q04DX002 (ip), vehicle: saline) was 100 % of control.

O=[N+]([O-])c1ccc(/C=C/C=C/C2(CCl)OCCO2)cc1 was tested, and the T/C [4] was 100 % of control, the T/C [5] was 112 % of control and the T/C [6] was 100 % of control.

With CC(C)=CCC/C(C)=C/CN the T/C (endpoint: mean survival time, dose: 25.0 mg/kg/injection, schedule: Q01DX009 (ip), vehicle: saline) was 98 % of control and the T/C (endpoint: mean survival time, dose: 100.0 mg/kg/injection, schedule: Q04DX003 (ip), vehicle: saline) was 86 % of control.

In the case of O=C(Nc1ccccc1)Nc1ccccc1F, the T/C [7] is reported as 95 % of control, the T/C [8] is reported as 113 % of control and the T/C [9] is reported as 98 % of control.

With CC(=O)/C(=N/O)c1ccccc1 the T/C (endpoint: mean survival time, dose: 75.0 mg/kg/injection, schedule: Q01DX009 (ip), vehicle: saline with Tween-80) was 102 % of control, the T/C [10] was 102 % of control and the T/C (endpoint: mean survival time, dose: 150.0 mg/kg/injection, schedule: Q01DX009 (ip), vehicle: saline with Tween-80) was 94 % of control. The T/C [11] was 102 % of control and the T/C [12] was 94 % of control.

In the case of O=C(O)c1ccccc1C(=O)Nc1nccs1, the T/C (endpoint: mean survival time, dose: 50.0 mg/kg/injection, schedule: Q01DX009 (ip), vehicle: Klucel (hydroxypropylcellulose) (HPC)) is reported as 97 % of control, the T/C (endpoint: mean survival time, dose: 100.0 mg/kg/injection, schedule: Q01DX009 (ip), vehicle: Klucel (hydroxypropylcellulose) (HPC)) is reported as 105 % of control and the T/C (endpoint: mean survival time, dose: 200.0 mg/kg/injection, schedule: Q01DX009 (ip), vehicle: Klucel (hydroxypropylcellulose) (HPC)) is reported as 101 % of control.

CC(C)(O)C#CC#CC(C)(C)O was tested, and the T/C (endpoint: mean survival time, dose: 100.0 mg/kg/injection, schedule: Q01DX001 (ip), vehicle: saline with Tween-80) was 102 % of control and the T/C (endpoint: mean survival time, dose: 200.0 mg/kg/injection, schedule: Q01DX001 (ip), vehicle: saline with Tween-80) was 96 % of control.

CCCSCC(C)C was tested, and the T/C [10] was 102 % of control, the T/C [11] was 93 % of control and the T/C [12] was 108 % of control.

In the case of CCCCOc1ccc(C=Nc2ccc(CC)cc2)cc1, the T/C [10] is reported as 101 % of control, the T/C [11] is reported as 97 % of control and the T/C [12] is reported as 103 % of control.

CCCCCCCCCCCCCCCCCC[N+]1(C)CCC1C (stereo not given) was tested, and the T/C (endpoint: mean survival time, dose: 1.56 mg/kg/injection, schedule: Q01DX001 (ip), vehicle: saline) was 101 % of control and the T/C (endpoint: mean survival time, dose: 3.12 mg/kg/injection, schedule: Q01DX001 (ip), vehicle: saline) was 102 % of control.

O=C(O)C1C(=O)CC2(O)c3ccccc3-c3ccccc3C12 (stereo not given) was tested, and the T/C [4] was 98 % of control, the T/C [1] was 96 % of control and the T/C [5] was 94 % of control. For the same compound, the T/C [2] was 93 % of control, the T/C [6] was 94 % of control and the T/C [3] was 93 % of control.

For CCCC(=O)C(CC)C(O)(C(F)(F)F)C(F)(F)F (stereo not given), the T/C (endpoint: mean survival time, dose: 100.0 mg/kg/injection, schedule: Q04DX003 (ip), vehicle: Klucel (hydroxypropylcellulose) (HPC)) was 95 % of control, the T/C (endpoint: mean survival time, dose: 200.0 mg/kg/injection, schedule: Q04DX003 (ip), vehicle: Klucel (hydroxypropylcellulose) (HPC)) was 108 % of control and the T/C (endpoint: mean survival time, dose: 400.0 mg/kg/injection, schedule: Q04DX003 (ip), vehicle: Klucel (hydroxypropylcellulose) (HPC)) was 86 % of control.

For O=c1cc(Nc2ccc(Br)cc2)[nH]c(=O)[nH]1, the T/C (endpoint: mean survival time, dose: 100.0 mg/kg/injection, schedule: Q01DX001 (ip), vehicle: other) was 92 % of control and the T/C (endpoint: mean survival time, dose: 200.0 mg/kg/injection, schedule: Q01DX001 (ip), vehicle: other) was 92 % of control.

CCCn1cnc2c(=S)nc[nH]c21 was tested, and the T/C (endpoint: mean survival time, dose: 150.0 mg/kg/injection, schedule: Q01DX Z (ip), vehicle: carboxymethylcellulose (CMC)) was 119 % of control, the T/C (endpoint: mean survival time, dose: 150.0 mg/kg/injection, schedule: Q04DX003 (ip), vehicle: saline with Tween-80) was 150 % of control and the T/C (endpoint: mean survival time, dose: 200.0 mg/kg/injection, schedule: Q01DX Z (ip), vehicle: carboxymethylcellulose (CMC)) was 95 % of control. The T/C (endpoint: mean survival time, dose: 300.0 mg/kg/injection, schedule: Q04DX003 (ip), vehicle: saline with Tween-80) was 161 % of control and the T/C (endpoint: mean survival time, dose: 600.0 mg/kg/injection, schedule: Q04DX003 (ip), vehicle: saline with Tween-80) was 111 % of control.

For CC1=NC(c2ccccn2)=NNC(c2ccccn2)=C1c1ccccc1, the T/C (endpoint: mean survival time, dose: 12.5 mg/kg/injection, schedule: Q01DX009 (ip), vehicle: water) was 98 % of control, the T/C (endpoint: mean survival time, dose: 25.0 mg/kg/injection, schedule: Q01DX009 (ip), vehicle: water) was 96 % of control and the T/C (endpoint: mean survival time, dose: 50.0 mg/kg/injection, schedule: Q01DX009 (ip), vehicle: water) was 98 % of control. The T/C (endpoint: mean survival time, dose: 100.0 mg/kg/injection, schedule: Q01DX009 (ip), vehicle: water) was 86 % of control and the T/C (endpoint: mean survival time, dose: 200.0 mg/kg/injection, schedule: Q01DX009 (ip), vehicle: water) was 90 % of control.

In the case of O=c1[nH]c(C(F)(F)F)nc2c1nc1n2CCC1, the T/C [13] is reported as 102 % of control, the T/C [14] is reported as 111 % of control and the T/C [7] is reported as 103 % of control.

For NC(=O)NNC(=O)C(Cl)(Cl)Cl, the T/C (endpoint: mean survival time, dose: 100.0 mg/kg/injection, schedule: Q04DX002 (ip), vehicle: saline) was 103 % of control.

For CN(C)C(=Nc1ccccc1)N(C)N, the T/C (endpoint: mean survival time, dose: 75.0 mg/kg/injection, schedule: Q01DX001 (ip), vehicle: saline) was 97 % of control and the T/C (endpoint: mean survival time, dose: 150.0 mg/kg/injection, schedule: Q01DX001 (ip), vehicle: saline) was 100 % of control.

With COC1OC2COC(c3ccccc3)OC2C(O)C1N (stereo not given) the T/C [13] was 96 % of control, the T/C [14] was 100 % of control and the T/C [7] was 103 % of control.

With CC1NC(C(=O)O)Cc2cc(O)c(O)cc21 (stereo not given) the T/C [10] was 102 % of control, the T/C [11] was 98 % of control and the T/C [12] was 100 % of control.

For CCc1ncc(C(O)c2ccc(Cl)cc2)n1Cc1ccccc1 (stereo not given), the T/C [7] was 92 % of control, the T/C [8] was 95 % of control and the T/C [9] was 92 % of control.

C=C1C(=O)OC2/C=C(\C)CC/C=C(/C)CC(OC(=O)/C(=C/CO)CO)C12 (stereo not given) was tested, and the T/C (endpoint: mean survival time, dose: 10.0 mg/kg/injection, schedule: Q01DX009 (ip), vehicle: Klucel (hydroxypropylcellulose) (HPC)) was 96 % of control, the T/C (endpoint: mean survival time, dose: 20.0 mg/kg/injection, schedule: Q01DX009 (ip), vehicle: Klucel (hydroxypropylcellulose) (HPC)) was 100 % of control and the T/C (endpoint: mean survival time, dose: 40.0 mg/kg/injection, schedule: Q01DX009 (ip), vehicle: Klucel (hydroxypropylcellulose) (HPC)) was 95 % of control.

S=C(N/N=C1/CCCC/C1=N/NC(=S)N1CCOCC1)N1CCOCC1 was tested, and the T/C (endpoint: median survival time, dose: 1.5 mg/kg/injection, schedule: Q01DX009 (ip), vehicle: saline with Tween-80) was 95 % of control, the T/C (endpoint: median survival time, dose: 3.0 mg/kg/injection, schedule: Q01DX009 (ip), vehicle: saline with Tween-80) was 96 % of control and the T/C (endpoint: median survival time, dose: 6.0 mg/kg/injection, schedule: Q01DX009 (ip), vehicle: saline with Tween-80) was 108 % of control. The T/C (endpoint: median survival time, dose: 12.0 mg/kg/injection, schedule: Q01DX009 (ip), vehicle: saline with Tween-80) was 109 % of control.
